Experimental data published in patent publication US10865390B2, “Alcohol dehydrogenase mutant and application thereof in synthesis of diaryl chiral alcohols” (Jiangnan University, priority 2018, dated 2020).

Assays:
Format in all cases: biochemical
Conditions in all cases: NADPH, pH 7.0, 30° C.
[1] = biological target: T1, alcohol dehydrogenase KpADH, wild type, SEQ ID No. 2 (Vanderwaltozyma polyspora, UniProt A7TM80); assay: Kinetic analysis of KpADH wild type with CPMK
T1 sequence (A7TM80 1-342): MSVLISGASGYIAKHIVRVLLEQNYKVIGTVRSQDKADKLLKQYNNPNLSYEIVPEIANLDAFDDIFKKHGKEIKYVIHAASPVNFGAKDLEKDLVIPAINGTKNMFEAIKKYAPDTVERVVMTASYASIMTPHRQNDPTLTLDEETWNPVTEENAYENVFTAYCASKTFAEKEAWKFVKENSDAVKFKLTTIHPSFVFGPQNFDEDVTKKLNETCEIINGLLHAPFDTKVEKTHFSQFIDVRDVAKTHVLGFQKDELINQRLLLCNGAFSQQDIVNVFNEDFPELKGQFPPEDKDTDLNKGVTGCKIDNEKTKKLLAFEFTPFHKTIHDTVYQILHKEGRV
Method: (§1) Adopting a total reaction system of 200 μL including: 1.0 mM NADPH, 1.0 mM substrate CPMK and sodium phosphate buffer (PBS, 100 mM, pH 7.0), fully and evenly mixing, maintaining at 30° C. for 2 min, adding an appropriate amount of enzyme solution, and detecting the change in light absorption at 340 nm.
(§2) The enzyme activity was calculated by the following formula: Enzyme activity (U)=EW×V×10^3/(6220×1);
(§3) in the formula, EW is the change in absorbance at 340 nm in 1 min; V is the volume of a reaction solution in mL; 6220 is the molar extinction coefficient of NADPH in L/(mol·cm); and 1 is the optical path distance in cm. One activity unit (U) corresponds to the amount of enzyme required to catalyze the oxidation of 1 μmol NADPH per minute under the above conditions.
A column used for purification was a nickel affinity column HisTrap FF crude, and purification was achieved through affinity chromatography using a histidine tag on recombinant protein. The nickel column was equilibrated with a solution A first, a crude enzyme solution was loaded, a penetrating peak was further eluted off using the solution A, and after equilibrium, a solution B (20 mM sodium phosphate, 500 mM NaCl, and 1000 mM imidazole, pH 7.4) was used for gradient elution to elute off the recombinant protein bound to the nickel column, so as to obtain the recombinant alcohol dehydrogenase mutant. The purified protein was subjected to activity measurement (CPMK as substrate, and NADPH as coenzyme) and SDS-PAGE analysis. […] The purified alcohol dehydrogenase protein was then replaced into a Tris-HCl (100 mM, pH 7.0) buffer using a Hi Trap Desalting column (GE Healthcare).
(§4) The activity of KpADH at different substrate concentrations and coenzyme concentrations was determined, and a double reciprocal curve was made based on the reciprocal of activity and substrate concentration to calculate kinetic parameters.

[2] = biological target: T2, alcohol dehydrogenase KpADH mutant M5 (E214G/S237C/Q136N/S196G of SEQ ID No. 2) (Vanderwaltozyma polyspora, UniProt A7TM80, E214G/Q136N/S196G/S237C); assay: Kinetic analysis of KpADH mutant M5 with CPMK
T2 construct: mutant M5
Method: In an embodiment of the present disclosure, the mutant includes the substitution of glycine for glutamic acid at position 214 of the amino acid sequence shown in SEQ ID No. 2, the substitution of cysteine for serine at position 237, the substitution of asparaginate for glutamine at position 136, and the substitution of glycine for serine at position 196, which is named M5.
as §1, §2
as §3, with “conditions. […]” for “conditions.”
as §4

[3] = biological target: T3, alcohol dehydrogenase KpADH mutant M7 (E214V/T215S of SEQ ID No. 2) (Vanderwaltozyma polyspora, UniProt A7TM80, E214V/T215S); assay: Kinetic analysis of KpADH mutant M7 with CPMK
T3 construct: mutant M7
Method: In an embodiment of the present disclosure, the mutant includes the substitution of valine for glutamic acid at position 214 of the amino acid sequence shown in SEQ ID No. 2, and the substitution of serine for threonine at position 215, which is named M7.
as §1, §2
as §3, with “conditions. […]” for “conditions.”
as §4

[4] = biological target: T4, alcohol dehydrogenase KpADH mutant M8 (Q136N/F161V of SEQ ID No. 1) (Vanderwaltozyma polyspora, UniProt A7TM80, F161V/Q136N); assay: Kinetic analysis of KpADH mutant M8 (control example) with CPMK
T4 construct: control mutant M8
Method: In an embodiment of the present disclosure, the mutant includes the substitution of asparaginate for glutamine at position 136 of alcohol dehydrogenase with an amino acid sequence shown in SEQ ID No. 1, and the substitution of valine for phenylalanine at position 161, which is named M8.
as §1, §2
as §3, with “conditions. […]” for “conditions.”
as §4

[5] = biological target: T5, alcohol dehydrogenase KpADH mutant M9 (S196G/S237C of SEQ ID No. 1) (Vanderwaltozyma polyspora, UniProt A7TM80, S196G/S237C); assay: Kinetic analysis of KpADH mutant M9 (control example) with CPMK
T5 construct: control mutant M9
Method: In an embodiment of the present disclosure, the mutant includes the substitution of glycine for serine at position 196 of the alcohol dehydrogenase with the amino acid sequence shown in SEQ ID No. 1, and the substitution of cysteine for serine at position 237, which is named M9.
as §1, §2
as §3, with “conditions. […]” for “conditions.”
as §4

For `O=C(c1ccc(Cl)cc1)c1ccccn1` [CPMK, (4-chlorophenyl)-(pyridin-2-yl)-methanone], the Kcat [1] was 11.8 s⁻¹, the Km [1] was 410 µM and the Vmax [1] was 17.9 µmol/min/mg. The Kcat [2] was 17.0 s⁻¹, the Vmax [2] was 21.3 µmol/min/mg and the Kcat [3] was 14.2 s⁻¹. The Vmax [3] was 21.3 µmol/min/mg, the Kcat [4] was 14.8 s⁻¹ and the Vmax [4] was 22.3 µmol/min/mg. The Kcat [5] was 17.6 s⁻¹ and the Vmax [5] was 26.5 µmol/min/mg.
